Reference: patent publication US6939686B2, “Methodology of using raman imaging microscopy for evaluating drug action within living cells” (Southwest Research Institute, priority 2000, dated 2005)

Test system: MDA435 breast cancer cells
Experiment: Ratio Raman imaging of drug uptake and distribution in a single living cell
Type: cell-based
Experimental: Raman imaging of the cell-drug interactions consists of several steps. First, the Raman spectrum of the drug is measured. From the Raman spectrum, the locations and relative intensities of the Raman peaks (or Raman modes) is determined. The combination of the multiple Raman peaks and their relative intensities provides a unique fingerprint of the drug. In the preferred embodiment, the Raman spectrum of the anticancer drug taxol was measured as illustrated in FIG. 1. From the spectrum the most significant Raman mode is 1002 cm^−1.
In the preferred embodiment the Raman signal of a breast tumor cell was studied and the Raman spectrum was measured. […] The laser beam was focused in the cell cytoplasm and nucleus areas to determine if there was any difference in their spectra. Each measurement was 120 seconds long. FIGS. 2 and 3 illustrate the Raman spectra of the cytoplasm and nucleus of the breast tumor cell, respectively. […]
The acquired Raman images are then processed by smoothing noises, de-blurring, and removing the intensity contributed from the fluorescence. […]
The restored Raman signal still contained the non-uniform illumination effect and fluorescent contribution, illustrated as follows: s(x,y)=K(x,y)·i(x,y)·t+Ko(x,y)·i(x,y)·t. From the Raman spectra illustrated in FIGS. 1-3, Raman peaks are riding on a broadband baseline that is contributed from the fluorescence. […]

CC(=O)O[C@H]1C(=O)[C@@]2(C)[C@H]([C@H](OC(=O)c3ccccc3)[C@]3(O)C[C@H](OC(=O)[C@H](O)[C@@H](NC(=O)c4ccccc4)c4ccccc4)C(C)=C1C3(C)C)[C@]1(OC(C)=O)CO[C@@H]1C[C@@H]2O [taxol]
drug distribution within the cell (ratio Raman image at 1002 cm^−1) (breast tumor cell exposed to 0.3 mg/ml taxol solution for one hour, FIG. 5(b)): taxol entered the tumor cell from the top membrane and gradually penetrated into the center of the cell
drug distribution at different depths of the cell (stack of ratio Raman images) (breast tumor cell treated with 0.3 mg/ml taxol solution for one hour, FIG. 7): More drug entered the cell from the middle layer (Z=6 μm)
